Measured values from patent publication EP4122499A1, “FIBROBLAST ACTIVATION PROTEIN INHIBITORS AND USE THEREOF” (3B Pharmaceuticals GmbH, priority 2021, dated 2023).

Biological target: T1, Recombinant mouse FAP (Mus musculus, UniProt P97321)
T1 construct: purchased R&D systems 8647-SE
T1 sequence (P97321 1-761): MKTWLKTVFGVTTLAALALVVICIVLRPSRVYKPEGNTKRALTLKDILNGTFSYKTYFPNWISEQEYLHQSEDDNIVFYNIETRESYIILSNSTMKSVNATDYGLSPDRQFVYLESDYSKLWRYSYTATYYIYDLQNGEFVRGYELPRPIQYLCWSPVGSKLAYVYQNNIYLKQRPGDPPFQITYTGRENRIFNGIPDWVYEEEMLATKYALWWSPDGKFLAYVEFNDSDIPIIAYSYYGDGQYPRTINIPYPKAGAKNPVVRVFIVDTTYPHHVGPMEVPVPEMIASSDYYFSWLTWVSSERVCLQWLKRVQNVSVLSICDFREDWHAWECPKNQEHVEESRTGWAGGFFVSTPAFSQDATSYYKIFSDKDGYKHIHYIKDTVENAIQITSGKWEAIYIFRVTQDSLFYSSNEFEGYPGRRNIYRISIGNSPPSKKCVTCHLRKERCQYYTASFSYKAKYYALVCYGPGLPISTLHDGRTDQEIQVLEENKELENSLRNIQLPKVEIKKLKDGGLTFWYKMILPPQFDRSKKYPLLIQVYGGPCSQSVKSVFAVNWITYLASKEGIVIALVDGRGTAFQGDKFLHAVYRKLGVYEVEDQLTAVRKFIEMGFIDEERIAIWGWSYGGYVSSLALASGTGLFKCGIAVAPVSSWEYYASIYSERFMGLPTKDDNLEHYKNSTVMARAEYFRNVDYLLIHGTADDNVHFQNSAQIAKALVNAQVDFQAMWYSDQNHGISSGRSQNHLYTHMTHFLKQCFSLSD
Assay: FRET-based FAP protease activity assay (mouse)
Assay type: biochemical
Details: FRET-peptide substrate, 37°C
Procedure: In order to determine the inhibitory activity a FRET-based FAP protease activity assay was established.
25 µL of a 30 µM substrate solution, diluted in assay buffer, was added. […] Four parameter logistic (4PL) curve fitting and pIC50 calculations were performed using ActivityBase software.

pIC50 (mouseFAP)	SMILES
8.5	O=C(O)CN1CCN(CC(=O)O)CCN(CC(=O)N2CCN(CCCOc3ccc4nccc(C(=O)NCC(=O)N5CCC[C@H]5C(=O)c5nc6ccccc6o5)c4c3)CC2)CCN(CC(=O)O)CC1 [drawing 357]
8.6	O=C(O)CN1CCN(CC(=O)O)CCN(CC(=O)N2CCN(CCNC(=O)c3cccc(-c4ccc5nccc(C(=O)NCC(=O)N6CCC[C@H]6C(=O)c6nc7ccccc7o6)c5c4)c3)CC2)CCN(CC(=O)O)CC1 [drawing 353]
7.9	O=C(O)CN1CCN(CC(=O)O)CCN(CC(=O)N2CCN(CCNC(=O)c3ccc(-c4ccc5nccc(C(=O)NCC(=O)N6C[C@@H](F)C[C@H]6C(=O)c6nc7ccccc7o6)c5c4)cc3)CC2)CCN(CC(=O)O)CC1 [drawing 360]
8.1	O=C(O)CN1CCN(CC(=O)O)CCN(CC(=O)N2CCN(CCNC(=O)c3ccc(-c4ccc5nccc(C(=O)NCC(=O)N6CCC[C@H]6C(=O)c6nc7ccccc7o6)c5c4)cc3)CC2)CCN(CC(=O)O)CC1 [drawing 354]
8.8	N#C[C@@H]1CC(F)(F)CN1C(=O)CNC(=O)c1cc[n+]([O-])c2ccc(OCCCN3CCN(C(=O)CN4CCN(CC(=O)O)CCN(CC(=O)O)CCN(CC(=O)O)CC4)CC3)cc12
8.3	O=C(O)CN1CCN(CC(=O)O)CCN(CC(=O)N2CCN(CCCOc3ccc4nccc(C(=O)NCC(=O)N5CC(F)(F)C[C@H]5C(=O)c5nc6ccccc6o5)c4c3)CC2)CCN(CC(=O)O)CC1
8.7	O=C(O)CN1CCN(CC(=O)O)CCN(CC(=O)NCCCNC(=O)c2ccc(-c3ccc4nccc(C(=O)NCC(=O)N5CCC[C@H]5C(=O)c5nc6ccccc6o5)c4c3)cc2)CCN(CC(=O)O)CC1
8.9	O=C(O)CN1CCN(CC(=O)O)CCN(CC(=O)N2CCN(CCNC(=O)c3cccc(-c4ccc5c(C(=O)NCC(=O)N6CCC[C@H]6C(=O)c6nc7ccccc7o6)ccnc5c4)c3)CC2)CCN(CC(=O)O)CC1 [drawing 352]
7.8	O=C(O)CN1CCN(CC(=O)O)CCN(CC(=O)N2CCN(CCNC(=O)c3ccc(-c4ccc5nccc(C(=O)NCC(=O)N6CCC[C@H]6C(=O)c6nc7ccccc7o6)c5c4)cn3)CC2)CCN(CC(=O)O)CC1 [drawing 361]

Continued, molecule first:

SMILES	pIC50 (mouseFAP)
O=C(O)CN1CCN(CC(=O)O)CCN(CC(=O)N2CCN(CCCOc3ccc4nccc(C(=O)NCC(=O)N5C[C@@H](F)C[C@H]5C(=O)c5nc6ccccc6o5)c4c3)CC2)CCN(CC(=O)O)CC1 [drawing 358]	8.5
N#C[C@@H]1CC(F)(F)CN1C(=O)CNC(=O)c1ccnc2ccc(-c3ccc(C(=O)NCCCNC(=O)CN4CCN(CC(=O)O)CCN(CC(=O)O)CCN(CC(=O)O)CC4)cc3)cc12	9.2
N#C[C@@H]1CC(F)(F)CN1C(=O)CNC(=O)c1ccnc2ccc(-c3ccc(S(=O)(=O)CCCNC(=O)CN4CCN(CC(=O)O)CCN(CC(=O)O)CCN(CC(=O)O)CC4)cc3)cc12	9
N#C[C@@H]1CC(F)(F)CN1C(=O)CNC(=O)c1ccnc2ccc(-c3ccc(C(=O)NCCCNC(=O)CN4CCN(CC(=O)O)CCN(CC(=O)O)CCN(CC(=O)O)CC4)nc3)cc12	8.8
N#C[C@@H]1CC(F)(F)CN1C(=O)CNC(=O)c1ccnc2ccc(-c3ccc(C(=O)NCCN4CCN(C(=O)CN5CCN(CC(=O)O)CCN(CC(=O)O)CCN(CC(=O)O)CC5)CC4)cc3)cc12	8.9
O=C(O)CN1CCN(CC(=O)O)CCN(CC(=O)NCCCNC(=O)c2ccc(-c3ccc4nccc(C(=O)NCC(=O)N5CCC[C@H]5B(O)O)c4c3)cc2)CCN(CC(=O)O)CC1	8.5
O=C(O)CN1CCN(CC(=O)O)CCN(CC(=O)N2CCN(CCNC(=O)c3ccc(-c4ccc5c(C(=O)NCC(=O)N6CCC[C@H]6C(=O)c6nc7ccccc7o6)ccnc5c4)cc3)CC2)CCN(CC(=O)O)CC1 [drawing 355]	8.8
N#C[C@@H]1CCCN1C(=O)CNC(=O)c1ccnc2ccc(-c3ccc(C(=O)NCCCNC(=O)CN4CCN(CC(=O)O)CCN(CC(=O)O)CCN(CC(=O)O)CC4)cc3)cc12	9

Same assay, conditions: FRET-peptide substrate, 37°C, read-out: pIC50 (mouseFAP) (converted)

IC50 [nM]	SMILES
3.98	CC(C)(C)c1nnc(C(=O)[C@@H]2CCCN2C(=O)CNC(=O)c2ccnc3ccccc23)o1
2	O=C(NCC(=O)N1CCC[C@H]1C(=O)c1nc2ccccc2o1)c1ccnc2ccccc12
0.794	CS(=O)(=O)c1ccc(-c2ccc3nccc(C(=O)NCC(=O)N4CC(F)(F)C[C@H]4C#N)c3c2)cc1

Second part, the molecule before the results:

SMILES	IC50 [nM]
CS(=O)(=O)c1cccc(-c2ccc3nccc(C(=O)NCC(=O)N4CC(F)(F)C[C@H]4C#N)c3c2)c1 [drawing 288]	1
CS(=O)(=O)c1cccc(-c2ccc3c(C(=O)NCC(=O)N4CC(F)(F)C[C@H]4C#N)ccnc3c2)c1 [drawing 289]	1.26
